Data on 3 substances can be found in patent publication US11273200B2, “Immunotherapy against several tumors including gastrointestinal and gastric cancer” (Immatics Biotechnologies GmbH, priority 2010, dated 2022).

For one experiment, the system named is CD8+ T cells. Briefly: In vitro immunogenicity of HLA-A*0201 restricted TUMAPs: priming of CD8+ T cells with pMHC/anti-CD28 coated beads (aAPC), multimer staining. The following applies: HLA-A*0201 peptides, healthy donors, three stimulation cycles; for Wells positive/evaluable [%]: at least 48 wells evaluable; for Donors positive/evaluable [%]: at least four donors evaluable. In kind it is cell-based, human. The text has this: In order to perform in vitro stimulations by artificial antigen presenting cells (aAPC) loaded with peptide-MHC complex (pMHC) and anti-CD28 antibody, we first isolated CD8 T cells from fresh HLA-A*24 leukapheresis products or from HLA-A*2 buffy coats of healthy donors obtained from the Blood Bank Tuebingen.
CD8 T cells were either directly enriched or PBMCs (peripheral blood mononuclear cells) were isolated first by using standard gradient separation medium (PAA, Colbe, Germany). Isolated CD8 lymphocytes or PBMCs were incubated until use in T-cell medium (TCM) consisting of RPMI-Glutamax (Invitrogen, Karlsruhe, Germany) supplemented with 10% heat inactivated human AB serum (PAN-Biotech, Aidenbach, Germany), 100 U/ml Penicillin/100 μg/ml Streptomycin (Cambrex, Cologne, Germany), 1 mM sodium pyruvate (CC Pro, Oberdorla, Germany), 20 μg/ml Gentamycin (Cambrex). […] Isolation of CD8+ lymphocytes was performed by positive selection using CD8 MicroBeads (Miltenyi Biotec, Bergisch-Gladbach, Germany).
800.000 beads/200 μl were coated in 96-well plates in the presence of 600 ng biotin-anti-CD28 plus 200 ng relevant biotin-pMHC (high density beads). […] Half of the medium was then exchanged by fresh TCM supplemented with 80 U/ml IL-2 and incubation was continued for 3-4 days at 37° C. This stimulation cycle was performed for a total of three times.
In vitro priming of specific multimer+ CD8+ lymphocytes was detected by appropriate gating and by comparing to negative control stimulations.

The conditions of experiment [1]: described in other applications by immatics; vaccines IMA901, IMA910; cited from earlier work.

As for “KIFDEILVNA (listed as Homo sapiens) [TOP-001]”, in the experiment with CD8+ T cells, the “Wells positive/evaluable [%]” value is on record as 10% and the “Donors positive/evaluable [%]” value is 40%.
For “KIQEILTQV (listed as Homo sapiens) [IGF2BP3-001]” the same measures were 21% and 50%.
In the case of “YVDPVIT SI (YVDPVITSI; listed as Homo sapiens) [MET-001]”, in experiment [1], the in vivo reactions entry is “extremely good in vivo reactions”. Besides, in the experiment with CD8+ T cells, the “Wells positive/evaluable [%]” value amounted to 42% and the “Donors positive/evaluable [%]” value amounted to 67%.
